Test results reported in patent publication US9061030B2, “sGC stimulators” (IRONWOOD PHARMACEUTICALS, INC., priority 2010, dated 2015).

Key:
[1] = target: T1, Human soluble guanylate cyclase enzyme (hsGC) (Homo sapiens, UniProt Q02108+Q02153); test: Purified human sGC enzyme activity assay (with or without SNP); type: biochemical; conditions: 30 μM compound; for sGC Enzyme Activity Increase at 30 μM with SNP: 1 μM SNP, specific activity vs DMSO and SNP; for sGC Enzyme Activity Increase at 30 μM without SNP: specific activity vs DMSO control
T1 construct: purchased Enzo Inc. ALX-201-177
T1 sequence (Q02153 1-619): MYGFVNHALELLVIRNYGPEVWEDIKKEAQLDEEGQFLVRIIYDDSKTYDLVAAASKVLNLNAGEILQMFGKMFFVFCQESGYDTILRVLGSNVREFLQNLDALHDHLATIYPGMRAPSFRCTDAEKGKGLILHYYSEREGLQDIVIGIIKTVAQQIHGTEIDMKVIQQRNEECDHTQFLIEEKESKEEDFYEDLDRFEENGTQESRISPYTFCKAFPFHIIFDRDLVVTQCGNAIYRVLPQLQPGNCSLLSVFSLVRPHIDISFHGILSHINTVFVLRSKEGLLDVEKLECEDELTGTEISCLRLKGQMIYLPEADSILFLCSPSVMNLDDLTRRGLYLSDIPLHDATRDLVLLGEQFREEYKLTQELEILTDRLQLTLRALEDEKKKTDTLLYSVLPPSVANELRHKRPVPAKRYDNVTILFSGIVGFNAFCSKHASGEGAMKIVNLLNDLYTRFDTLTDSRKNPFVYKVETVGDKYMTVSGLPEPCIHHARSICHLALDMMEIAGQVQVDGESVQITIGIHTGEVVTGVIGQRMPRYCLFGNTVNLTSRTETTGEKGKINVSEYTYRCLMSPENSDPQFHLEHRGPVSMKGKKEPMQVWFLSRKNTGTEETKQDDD
T1 sequence (Q02108 1-690): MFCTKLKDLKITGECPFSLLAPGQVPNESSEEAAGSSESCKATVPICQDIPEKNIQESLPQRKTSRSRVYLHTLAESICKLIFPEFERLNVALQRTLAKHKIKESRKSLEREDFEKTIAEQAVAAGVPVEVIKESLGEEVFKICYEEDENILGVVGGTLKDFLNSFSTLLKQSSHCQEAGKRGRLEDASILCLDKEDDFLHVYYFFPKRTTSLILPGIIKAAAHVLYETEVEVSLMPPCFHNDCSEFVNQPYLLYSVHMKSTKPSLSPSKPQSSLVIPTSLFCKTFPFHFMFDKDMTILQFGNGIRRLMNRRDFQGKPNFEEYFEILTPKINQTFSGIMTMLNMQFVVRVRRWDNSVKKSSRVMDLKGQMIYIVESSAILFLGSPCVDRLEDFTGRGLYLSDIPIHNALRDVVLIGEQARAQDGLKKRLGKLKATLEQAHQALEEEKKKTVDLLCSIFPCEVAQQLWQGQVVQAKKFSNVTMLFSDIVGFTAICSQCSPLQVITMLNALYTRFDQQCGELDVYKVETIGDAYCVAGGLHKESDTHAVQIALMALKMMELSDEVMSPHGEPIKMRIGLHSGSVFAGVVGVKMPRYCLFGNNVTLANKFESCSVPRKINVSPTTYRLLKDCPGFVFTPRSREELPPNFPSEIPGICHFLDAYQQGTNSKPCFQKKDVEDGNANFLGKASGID
Procedure: Human soluble guanylate cyclase enzyme (hsGC) obtained from Enzo Inc. (P/N: ALX-201-177) was used to evaluate the activity of test compounds. The assay reactions contained 0.1 M Tris (pH 8.0), 0.5 mg/mL BSA (pH 8.0), 2 mM DTT, 2 mM MgCl2, 300 μM GTP, 1 mM 3-isobutyl-1-methylxanthine (IBMX) and 5 ng human soluble guanylate cyclase enzyme. Test compounds in DMSO were then added (2 μL, 10 or 30 μM final concentration) and incubated (200 μL, 96-well plate format) at 37° C. for 30 minutes. The controls were carried out using 2 μL DMSO. After the 30 minute incubation, the reaction was stopped with the addition of 200 μL of cold methanol. The plate was then centrifuged at 3,200 rpm for 10 minutes at room temperature. Supernatants (200 μL) were collected and transferred to a new 96 well plate for analysis.
An 8 point cGMP (Sigma-Aldrich P/N: G6129) standard curve was prepared in assay buffer ranging from 0.156-20 μM. Samples for the cGMP standard curve were then diluted with an equal volume of methanol resulting in final cGMP concentrations of 0.078-10 μM.
The cGMP standard curve was generated using GraphPad Prism Software.
Calculations: Specific Activity was determined by the amount of cGMP formed (nmoles) per mg of sGC per min. Enzyme activity “fold-change” was calculated by dividing the Specific Activity for a test compound by the Specific Activity of DMSO control.
The enzymatic activity fold-change of the purified human sGC enzyme determined in the presence of each of the test compounds individually at 10 or 30 μm without the addition of sodium nitroprusside (SNP), a nitric oxide donor, is presented in Table 5.
Enzyme assays were also performed as described above, but in the presence of 1 μM sodium nitroprusside (SNP). Enzymatic activity fold-changes are reported for selected test compounds in the presence of both SNP and the test compound. These were calculated by dividing the specific activity (activity increase) for the test compound dissolved in DMSO and SNP over the specific activity for the mixture of DMSO and SNP.

[2] = target: T2, soluble guanylate cyclase (sGC) (Homo sapiens, UniProt Q02108+Q02153); test: sGC-HEK-cGMP assay; type: cell-based; conditions: HEK293 cells, 10 μM SNP, percentage of sGC activity obtained with positive control BAY 41-2272 (= 100%); for Emax at 10 µM: compound at 10 μM; for Emax at 30 µM: compound at 30 μM
T2 construct: endogenously expressing soluble guanylate cyclase (sGC); endogenous in cells; host or cells: HEK293
T2 sequence (Q02153 1-619): T1 sequence (Q02153 1-619)
T2 sequence (Q02108 1-690): T1 sequence (Q02108 1-690)
Procedure: Human embryonic kidney cells (HEK293), endogenously expressing soluble guanylate cyclase (sGC), were used to evaluate the activity of the test compounds. Compounds stimulating the sGC receptor should cause an increase in the intracellular concentration of cGMP. HEK 293 cells were seeded in Dulbecco's Modification of Eagle's Medium supplemented with fetal bovine serum (10% final) and L-glutamine (2 mM final) in a 200 μL volume at a density of 1×10^5 cells/well in a poly-D-lysine coated 96 well flat bottom plate and grown overnight at 37° C. Medium was aspirated and cells were washed with 1× Hank's Buffered Saline Salt Solution (200 μL). Cells were then incubated for 15 minutes at 37° C. with 0.5 mM 3-isobutyl-1-methylxanthine (200 μL). Test article was then added to the assay mixture (2 μL) and incubated in the presence of 10 μM Sodium Nitroprusside (SNP) at 37° C. for 10 minutes. After the 10 minute incubation, the assay mixture was aspirated and 0.1M HCl (200 μL) was added to the cells. The plate was incubated at 4° C. for 30 minutes in the 0.1M HCl to stop the reaction and lysed the cells. The plates were then centrifuged at 1,200 g for 5 minutes at room temperature. Supernatants were collected and transferred to a new flat bottom 96 well plate for analysis. Vehicle controls were carried out using DMSO (1%). A known sGC stimulator, BAY 41-2272, was used as the positive control.
Samples were diluted with an equal volume of 1 M Ammonium Acetate (pH 7) to neutralize samples for better chromatography. A 2×cGMP standard curve was prepared in 0.1 M HCl and then diluted with an equal volume of 1 M Ammonium Acetate, with the following final concentrations in nM: 1024, 512, 256, 128, 64, 32, 16, 8, 4, 2, 1.cGMP concentrations were determined from each sample using the LC/MS conditions (Table 2 below) and calculated standard curve. EC50 values were calculated from concentration-response curves generated with GraphPad Prism Software.
The biological activities of some of the compounds according to Formula IA or Formula IB determined with the sGC-HEK assay are summarized in Table 3 below.

SMILES | sGC Enzyme Activity Increase at 30 μM with SNP [1] | sGC Enzyme Activity Increase at 30 μM without SNP [1] | Emax at 10 µM [2] [%] | Emax at 30 µM [2] [%]
Fc1ccccc1Cn1nc(-c2ncccn2)nc1-c1ccon1 [Compound I-59, 3-(1-(2-fluorobenzyl)-3-(pyrimidin-2-yl)-1H-1,2,4-triazol-5-yl)isoxazole] | A (A = no increase to <1 fold increase) | A (A = no increase to <1 fold increase) | 0 to 5 | 0 to 5
Nc1nc(-c2nc(-c3nccs3)n(Cc3ccccc3F)n2)nc(N)c1N [Compound I-57, 2-(1-(2-fluorobenzyl)-5-(thiazol-2-yl)-1H-1,2,4-triazol-3-yl)pyrimidin-4,5,6-triamine] | C (C = 2 to <5 fold increase) | B (B = 1 to <2 fold increase) | 0 to 5 | 0 to 5
Fc1ccccc1Cn1nc(-c2cnccn2)nc1-c1cscn1 [Compound I-56] | D (D = 5 to <10 fold increase) | B (B = 1 to <2 fold increase) | 10 to 20 | 40 to 60
Fc1ccccc1Cn1nc(-c2cscn2)nc1-c1cc(Br)ccn1 [Compound I-52, 4-(5-(4-bromopyridin-2-yl)-1-(2-fluorobenzyl)-1H-1,2,4-triazol-3-yl)thiazole] | B (B = 1 to <2 fold increase) | B (B = 1 to <2 fold increase) | 0 to 5 | 0 to 5
Fc1ccccc1Cn1nc(-c2ccccn2)nc1C1CC1 [Compound I-21] | B (B = 1 to <2 fold increase) | B (B = 1 to <2 fold increase) | 0 to 5 | 0 to 5

More lines, now with the values ahead:

sGC Enzyme Activity Increase at 30 μM with SNP [1] | sGC Enzyme Activity Increase at 30 μM without SNP [1] | Emax at 10 µM [2] [%] | Emax at 30 µM [2] [%] | SMILES
C (C = 2 to <5 fold increase) | B (B = 1 to <2 fold increase) | 5 to 10 | 5 to 10 | Fc1ccc(-c2nc(-c3nccs3)nn2Cc2ccccc2F)nc1 [Compound I-39]
C (C = 2 to <5 fold increase) | B (B = 1 to <2 fold increase) | 5 to 10 | 10 to 20 | Fc1ccccc1Cn1nc(-c2cscn2)nc1-c1ccccn1 [Compound I-5]
C (C = 2 to <5 fold increase) | B (B = 1 to <2 fold increase) | 0 to 5 | 5 to 10 | Fc1ccccc1Cn1nc(-c2ccccn2)nc1Br [Compound I-16, 2-(5-bromo-1-(2-fluorobenzyl)-1H-1,2,4-triazol-3-yl)pyridine]
B (B = 1 to <2 fold increase) | B (B = 1 to <2 fold increase) | 0 to 5 | 5 to 10 | Fc1ccccc1Cn1nc(-c2ccccn2)nc1-n1ccnc1 [Compound I-49, 2-(1-(2-fluorobenzyl)-5-(1H-imidazol-1-yl)-1H-1,2,4-triazol-3-yl)pyridine]
E (E = 10 to <20 fold increase) | C (C = 2 to <5 fold increase) | 20 to 40 | 40 to 60 | Fc1ccccc1Cn1nc(-c2cc(N3CCOCC3)ccn2)nc1-c1cocn1 [Compound I-68, 4-(2-(1-(2-fluorobenzyl)-5-(oxazol-4-yl)-1H-1,2,4-triazol-3-yl)pyridin-4-yl)morpholine]
B (B = 1 to <2 fold increase) | C (C = 2 to <5 fold increase) | 0 to 5 | 5 to 10 | Fc1ccccc1Cn1nc(-c2ncccn2)nc1-c1ncco1 [Compound I-9]
D (D = 5 to <10 fold increase) | C (C = 2 to <5 fold increase) | 10 to 20 | 10 to 20 | Fc1ccccc1Cn1nc(-c2nccs2)nc1-c1ccccn1 [Compound I-26]
